According to patent US8410161B2, “Thioxanthone ring system derivatives” (National Defense Medical Center, priority 2010, dated 2013):

Key:
[1] = system: A control cell lines; experiment: MTT assay, A control cell lines (lung cancer cell); format: cell-based
From the text: Please refer to Table 1 and FIGS. 4A-4C. According to a MTT assay (Table 1), various cell viabilities of the A control cell lines can be obtained and illustrated in FIG. 4A while the compounds No. 2˜30 are used to treat A control cell lines, wherein A control cell lines are lung cancer cell.

[2] = system: A3 cell lines; experiment: MTT assay, A3 cell lines (lung cancer stem cell); format: cell-based
From the text: Please to FIG. 4B, various cell viabilities of the A3 cell lines can be obtained through the MTT assay and illustrated in FIG. 4B while the compounds No. 1˜30 are used to treat A3 cell lines, wherein A3 cell lines are lung cancer stem cell.

[3] = MTT assay, HEL299 fibroblast; format: cell-based; settings: human
From the text: Please refer to FIG. 4C, various cell viabilities of the HEL299 cell lines can be obtained through the MTT assay while the compounds No. 1˜30 are used to treat HEL299 cell lines, wherein HEL299 cell lines are fibroblast.

[4] = system: CCRF-CEM; experiment: NCI in vitro DTP human cell line screen, CCRF-CEM; format: cell-based; settings: Leukemia, 1.00E−5 Molar
Method: (§1) Then, a cell toxicity assay of the cancer lines made by National Cancer Institute will be discussed as follows. The cell toxicity assay is performed by choosing ten compounds (existing certification numbers) from the 59 compounds disclosed in the present invention first.

[5] = system: HL-60(TB); experiment: NCI in vitro DTP human cell line screen, HL-60(TB); format: cell-based; settings: Leukemia, 1.00E−5 Molar
Method: as §1

[6] = system: K562; experiment: NCI in vitro DTP human cell line screen, K562; format: cell-based; settings: Leukemia, 1.00E−5 Molar
Method: as §1

[7] = system: MOLT-4; experiment: NCI in vitro DTP human cell line screen, MOLT-4; format: cell-based; settings: Leukemia, 1.00E−5 Molar
Method: as §1

[8] = system: RPMI-8226; experiment: NCI in vitro DTP human cell line screen, RPMI-8226; format: cell-based; settings: Leukemia, 1.00E−5 Molar
Method: as §1

[9] = system: SR; experiment: NCI in vitro DTP human cell line screen, SR; format: cell-based; settings: Leukemia, 1.00E−5 Molar
Method: as §1

[10] = system: EKVX; experiment: NCI in vitro DTP human cell line screen, EKVX; format: cell-based; settings: Non-Small Cell Lung Cancer, 1.00E−5 Molar
Method: as §1

[11] = system: HOP-92; experiment: NCI in vitro DTP human cell line screen, HOP-92; format: cell-based; settings: Non-Small Cell Lung Cancer, 1.00E−5 Molar
Method: as §1

[12] = system: NCI-H226; experiment: NCI in vitro DTP human cell line screen, NCI-H226; format: cell-based; settings: Non-Small Cell Lung Cancer, 1.00E−5 Molar
Method: as §1

[13] = system: NCI-H23; experiment: NCI in vitro DTP human cell line screen, NCI-H23; format: cell-based; settings: Non-Small Cell Lung Cancer, 1.00E−5 Molar
Method: as §1

[14] = system: NCI-H322M; experiment: NCI in vitro DTP human cell line screen, NCI-H322M; format: cell-based; settings: Non-Small Cell Lung Cancer, 1.00E−5 Molar
Method: as §1

[15] = system: NCI-H460; experiment: NCI in vitro DTP human cell line screen, NCI-H460; format: cell-based; settings: Non-Small Cell Lung Cancer, 1.00E−5 Molar
Method: as §1

[16] = system: NCI-H522; experiment: NCI in vitro DTP human cell line screen, NCI-H522; format: cell-based; settings: Non-Small Cell Lung Cancer, 1.00E−5 Molar
Method: as §1

[17] = system: COLO 205; experiment: NCI in vitro DTP human cell line screen, COLO 205; format: cell-based; settings: Colon Cancer, 1.00E−5 Molar
Method: as §1

[18] = system: HCC-2998; experiment: NCI in vitro DTP human cell line screen, HCC-2998; format: cell-based; settings: Colon Cancer, 1.00E−5 Molar
Method: as §1

[19] = system: HCT-116; experiment: NCI in vitro DTP human cell line screen, HCT-116; format: cell-based; settings: Colon Cancer, 1.00E−5 Molar
Method: as §1

[20] = system: HCT-15; experiment: NCI in vitro DTP human cell line screen, HCT-15; format: cell-based; settings: Colon Cancer, 1.00E−5 Molar
Method: as §1

[21] = system: HT29; experiment: NCI in vitro DTP human cell line screen, HT29; format: cell-based; settings: Colon Cancer, 1.00E−5 Molar
Method: as §1

[22] = system: KM12; experiment: NCI in vitro DTP human cell line screen, KM12; format: cell-based; settings: Colon Cancer, 1.00E−5 Molar
Method: as §1

[23] = system: SW-620; experiment: NCI in vitro DTP human cell line screen, SW-620; format: cell-based; settings: Colon Cancer, 1.00E−5 Molar
Method: as §1

[24] = system: SF-268; experiment: NCI in vitro DTP human cell line screen, SF-268; format: cell-based; settings: CNS Cancer, 1.00E−5 Molar
Method: as §1

[25] = system: SF-295; experiment: NCI in vitro DTP human cell line screen, SF-295; format: cell-based; settings: CNS Cancer, 1.00E−5 Molar
Method: as §1

[26] = system: SF-539; experiment: NCI in vitro DTP human cell line screen, SF-539; format: cell-based; settings: CNS Cancer, 1.00E−5 Molar
Method: as §1

[27] = system: SNB-19; experiment: NCI in vitro DTP human cell line screen, SNB-19; format: cell-based; settings: CNS Cancer, 1.00E−5 Molar
Method: as §1

[28] = system: SNB-75; experiment: NCI in vitro DTP human cell line screen, SNB-75; format: cell-based; settings: CNS Cancer, 1.00E−5 Molar
Method: as §1

[29] = system: U251; experiment: NCI in vitro DTP human cell line screen, U251; format: cell-based; settings: CNS Cancer, 1.00E−5 Molar
Method: as §1

[30] = system: LOX IMVI; experiment: NCI in vitro DTP human cell line screen, LOX IMVI; format: cell-based; settings: Melanoma, 1.00E−5 Molar
Method: as §1

[31] = system: MALME-3M; experiment: NCI in vitro DTP human cell line screen, MALME-3M; format: cell-based; settings: Melanoma, 1.00E−5 Molar
Method: as §1

[32] = system: M14; experiment: NCI in vitro DTP human cell line screen, M14; format: cell-based; settings: Melanoma, 1.00E−5 Molar
Method: as §1

[33] = system: MDA-MB-435; experiment: NCI in vitro DTP human cell line screen, MDA-MB-435; format: cell-based; settings: Melanoma, 1.00E−5 Molar
Method: as §1

[34] = system: SK-MEL-2; experiment: NCI in vitro DTP human cell line screen, SK-MEL-2; format: cell-based; settings: Melanoma, 1.00E−5 Molar
Method: as §1

[35] = system: SK-MEL-28; experiment: NCI in vitro DTP human cell line screen, SK-MEL-28; format: cell-based; settings: Melanoma, 1.00E−5 Molar
Method: as §1

[36] = system: SK-MEL-5; experiment: NCI in vitro DTP human cell line screen, SK-MEL-5; format: cell-based; settings: Melanoma, 1.00E−5 Molar
Method: as §1

[37] = system: UACC-257; experiment: NCI in vitro DTP human cell line screen, UACC-257; format: cell-based; settings: Melanoma, 1.00E−5 Molar
Method: as §1

[38] = system: UACC-62; experiment: NCI in vitro DTP human cell line screen, UACC-62; format: cell-based; settings: Melanoma, 1.00E−5 Molar
Method: as §1

[39] = system: IGROV1; experiment: NCI in vitro DTP human cell line screen, IGROV1; format: cell-based; settings: Ovarian Cancer, 1.00E−5 Molar
Method: as §1

[40] = system: OVCAR-3; experiment: NCI in vitro DTP human cell line screen, OVCAR-3; format: cell-based; settings: Ovarian Cancer, 1.00E−5 Molar
Method: as §1

[41] = system: OVCAR-4; experiment: NCI in vitro DTP human cell line screen, OVCAR-4; format: cell-based; settings: Ovarian Cancer, 1.00E−5 Molar
Method: as §1

[42] = system: OVCAR-5; experiment: NCI in vitro DTP human cell line screen, OVCAR-5; format: cell-based; settings: Ovarian Cancer, 1.00E−5 Molar
Method: as §1

[43] = system: OVCAR-8; experiment: NCI in vitro DTP human cell line screen, OVCAR-8; format: cell-based; settings: Ovarian Cancer, 1.00E−5 Molar
Method: as §1

[44] = system: NCI/ADR-RES; experiment: NCI in vitro DTP human cell line screen, NCI/ADR-RES; format: cell-based; settings: Ovarian Cancer, 1.00E−5 Molar
Method: as §1

[45] = system: SK-OV-3; experiment: NCI in vitro DTP human cell line screen, SK-OV-3; format: cell-based; settings: Ovarian Cancer, 1.00E−5 Molar
Method: as §1

[46] = system: 786-0; experiment: NCI in vitro DTP human cell line screen, 786-0; format: cell-based; settings: Renal Cancer, 1.00E−5 Molar
Method: as §1

[47] = system: ACHN; experiment: NCI in vitro DTP human cell line screen, ACHN; format: cell-based; settings: Renal Cancer, 1.00E−5 Molar
Method: as §1

[48] = system: CAKI-1; experiment: NCI in vitro DTP human cell line screen, CAKI-1; format: cell-based; settings: Renal Cancer, 1.00E−5 Molar
Method: as §1

[49] = system: RXF 393; experiment: NCI in vitro DTP human cell line screen, RXF 393; format: cell-based; settings: Renal Cancer, 1.00E−5 Molar
Method: as §1

[50] = system: SN12C; experiment: NCI in vitro DTP human cell line screen, SN12C; format: cell-based; settings: Renal Cancer, 1.00E−5 Molar
Method: as §1

[51] = system: TK-10; experiment: NCI in vitro DTP human cell line screen, TK-10; format: cell-based; settings: Renal Cancer, 1.00E−5 Molar
Method: as §1

[52] = system: UO-31; experiment: NCI in vitro DTP human cell line screen, UO-31; format: cell-based; settings: Renal Cancer, 1.00E−5 Molar
Method: as §1

[53] = system: PC-3; experiment: NCI in vitro DTP human cell line screen, PC-3; format: cell-based; settings: Prostate Cancer, 1.00E−5 Molar
Method: as §1

[54] = system: DU145; experiment: NCI in vitro DTP human cell line screen, DU145; format: cell-based; settings: Prostate Cancer, 1.00E−5 Molar
Method: as §1

[55] = system: MCF7; experiment: NCI in vitro DTP human cell line screen, MCF7; format: cell-based; settings: Breast Cancer, 1.00E−5 Molar
Method: as §1

[56] = system: MDA-MB-231/ATCC; experiment: NCI in vitro DTP human cell line screen, MDA-MB-231/ATCC; format: cell-based; settings: Breast Cancer, 1.00E−5 Molar
Method: as §1

[57] = system: HS 578-T; experiment: NCI in vitro DTP human cell line screen, HS 578-T; format: cell-based; settings: Breast Cancer, 1.00E−5 Molar
Method: as §1

[58] = system: BT-549; experiment: NCI in vitro DTP human cell line screen, BT-549; format: cell-based; settings: Breast Cancer, 1.00E−5 Molar
Method: as §1

[59] = system: T-47D; experiment: NCI in vitro DTP human cell line screen, T-47D; format: cell-based; settings: Breast Cancer, 1.00E−5 Molar
Method: as §1

[60] = system: MDA-MB-468; experiment: NCI in vitro DTP human cell line screen, MDA-MB-468; format: cell-based; settings: Breast Cancer, 1.00E−5 Molar
Method: as §1

[61] = system: 60 cancer lines; experiment: NCI cell toxicity assay of 60 cancer lines, whole panel summary; format: cell-based, human; settings: mean over all cell lines; 1.00E−5 Molar
Method: as §1

SMILES: O=c1c2ccccc2sc2c(Cl)c(Sc3ccccc3)ccc12 [No. 6, 4-Chloro-3-(phenylthio)-9H-thioxanthen-9-one]
- cell viabilities of A control cell lines (MTT assay) [1]: 99.7 ± 4.76%
- cell viabilities of A3 cell lines (MTT assay) [2]: 103 ± 13.0%
- viability [3]: 107 ± 2.62%
- Growth Percent [4]: 96.58%
- Growth Percent [5]: 103.53%
- Growth Percent [6]: 101.65%
- Growth Percent [7]: 99.77%
- Growth Percent [8]: 102.11%
- Growth Percent [9]: 91.41%
- Growth Percent [10]: 94.90%
- Growth Percent [11]: 76.04%
- Growth Percent [12]: 85.36%
- Growth Percent [13]: 84.67%
- Growth Percent [14]: 96.11%
- Growth Percent [15]: 108.87%
- Growth Percent [16]: 84.11%
- Growth Percent [17]: 103.82%
- Growth Percent [18]: 106.34%
- Growth Percent [19]: 98.18%
- Growth Percent [20]: 92.60%
- Growth Percent [21]: 102.56%
- Growth Percent [22]: 99.82%
- Growth Percent [23]: 96.96%
- Growth Percent [24]: 93.39%
- Growth Percent [25]: 100.33%
- Growth Percent [26]: 104.85%
- Growth Percent [27]: 98.01%
- Growth Percent [28]: 82.75%
- Growth Percent [29]: 94.85%
- Growth Percent [30]: 96.25%
- Growth Percent [31]: 92.44%
- Growth Percent [32]: 104.30%
- Growth Percent [33]: 103.22%
- Growth Percent [34]: 104.71%
- Growth Percent [35]: 113.07%
- Growth Percent [36]: 95.50%
- Growth Percent [37]: 102.79%
- Growth Percent [38]: 79.70%
- Growth Percent [39]: 91.62%
- Growth Percent [40]: 108.01%
- Growth Percent [41]: 99.56%
- Growth Percent [42]: 104.51%
- Growth Percent [43]: 94.68%
- Growth Percent [44]: 96.88%
- Growth Percent [45]: 96.13%
- Growth Percent [46]: 111.45%
- Growth Percent [47]: 94.03%
- Growth Percent [48]: 84.00%
- Growth Percent [49]: 110.95%
- Growth Percent [50]: 87.55%
- Growth Percent [51]: 97.85%
- Growth Percent [52]: 73.68%
- Growth Percent [53]: 90.81%
- Growth Percent [54]: 108.05%
- Growth Percent [55]: 82.14%
- Growth Percent [56]: 93.94%
- Growth Percent [57]: 119.59%
- Growth Percent [58]: 107.30%
- Growth Percent [59]: 87.90%
- Growth Percent [60]: 82.54%
- Growth Percent, Mean [61]: 96.75%
